According to patent US20230039887A1, “COMPOSITIONS FOR TOPICAL TREATMENT OF RADIATION DERMATITIS” (priority 2021, published 2023):

Columns and labels:
Format in all cases: cell-based
APOB = assay: qPCR gene expression in tissues treated topically, APOB; conditions: topical, without radiation exposure
Description: (§1) Next, changes in gene expression were measured in tissues treated topically with the formulations (without radiation exposure) using qPCR. […] Five genes were examined: APOB, CSF2, IL24, MT1F, and MT1G.
(§2) Statistical significance was determined using unpaired t-test, P<0.05, N=3, and are indicated in bold. The results are provided in Table B in both linear fold change values (FC) and in percent change.

IL24 = assay: qPCR gene expression in tissues treated topically, IL24; conditions: topical, without radiation exposure
Description: (§3) Next, changes in gene expression were measured in tissues treated topically with the formulations (without radiation exposure) using qPCR. This provides evidence that the CBD is being absorbed by the tissues. Five genes were examined: APOB, CSF2, IL24, MT1F, and MT1G.
(§4) Statistical significance was determined using unpaired t-test, P<0.05, N=3, and are indicated in bold. The results are provided in Table B in both linear fold change values (FC) and in percent change. It is noted that changes in gene expression in general were only seen in the treatments where CBD was used.

CSF2 = assay: qPCR gene expression in tissues treated topically, CSF2; conditions: topical, without radiation exposure
Description: as §1, §2

cells = assay: MTT assay of cell viability after 24 hours topical application; parameters: cell viability: dose or concentration left out as unconfirmed
Description: Test materials were applied topically for 24 hours and an MTT assay was used to check the viability of cells.
The relative results are provided in the following Table A, with the untreated group defining 100% viability, and shown in FIG. 1. * indicates p≤0.05 and ** indicates p≤0.01 statistical significance after performing unpaired t-test.

MT1F = assay: qPCR gene expression in tissues treated topically, MT1F; conditions: topical, without radiation exposure
Description: as §3, §4

MT1G = assay: qPCR gene expression in tissues treated topically, MT1G; conditions: topical, without radiation exposure
Description: as §3, §4

**Q.** `C=C(C)[C@@H]1CCC(C)=C[C@H]1c1c(O)cc(CCCCC)cc1O` [CBD, 2-[(1R,6R)-6-Isopropenyl-3-methylcyclohex-2-en-1-yl]-5-pentylbenzene-1,3-diol] was tested. Which “APOB gene expression, % Δ (percent change)” value (APOB; 1 mg/mL CBD) did it give?
**A.** 23%

**Q.** And the “APOB gene expression, FC (linear fold change)” value (APOB; 1 mg/mL CBD)?
**A.** 1.23

**Q.** And the “APOB gene expression, % Δ (percent change)” value (APOB; 10 mg/mL CBD)?
**A.** 0%

**Q.** And the “APOB gene expression, FC (linear fold change)” value (APOB; 10 mg/mL CBD)?
**A.** 1.00

**Q.** And the “APOB gene expression, % Δ (percent change)” value (APOB; 30 mg/mL CBD)?
**A.** −16%

**Q.** And the “APOB gene expression, FC (linear fold change)” value (APOB; 30 mg/mL CBD)?
**A.** −1.19

**Q.** What about the “APOB gene expression, % Δ (percent change)” value (APOB; 60 mg/mL CBD) of the same compound?
**A.** 51%

**Q.** What about the “APOB gene expression, % Δ (percent change)” value (APOB; 120 mg/mL CBD) of the same compound?
**A.** −9%

**Q.** And the “APOB gene expression, FC (linear fold change)” value (APOB; 120 mg/mL CBD)?
**A.** −1.10

**Q.** What about the “APOB gene expression, % Δ (percent change)” value (APOB; 250 mg/mL CBD) of the same compound?
**A.** −60%

**Q.** And the “APOB gene expression, FC (linear fold change)” value (APOB; 250 mg/mL CBD)?
**A.** −2.48

**Q.** And the “APOB gene expression, % Δ (percent change)” value (APOB; 500 mg/mL CBD)?
**A.** −96%

**Q.** What about the “APOB gene expression, FC (linear fold change)” value (APOB; 500 mg/mL CBD) of the same compound?
**A.** −22.22

**Q.** What about the “APOB gene expression, % Δ (percent change)” value (APOB; 750 mg/mL CBD) of the same compound?
**A.** −96%

**Q.** What about the “APOB gene expression, FC (linear fold change)” value (APOB; 750 mg/mL CBD) of the same compound?
**A.** −25.64

**Q.** What about the “IL24 gene expression, % Δ (percent change)” value (IL24; 1 mg/mL CBD) of the same compound?
**A.** 55%

**Q.** And the “IL24 gene expression, % Δ (percent change)” value (IL24; 10 mg/mL CBD)?
**A.** 48%

**Q.** What about the “IL24 gene expression, % Δ (percent change)” value (IL24; 30 mg/mL CBD) of the same compound?
**A.** −70%

**Q.** And the “IL24 gene expression, % Δ (percent change)” value (IL24; 60 mg/mL CBD)?
**A.** −11%

**Q.** What about the “IL24 gene expression, % Δ (percent change)” value (IL24; 120 mg/mL CBD) of the same compound?
**A.** 63%

**Q.** And the “IL24 gene expression, % Δ (percent change)” value (IL24; 250 mg/mL CBD)?
**A.** 59%

**Q.** What about the “IL24 gene expression, % Δ (percent change)” value (IL24; 500 mg/mL CBD) of the same compound?
**A.** −6%

**Q.** And the “IL24 gene expression, % Δ (percent change)” value (IL24; 750 mg/mL CBD)?
**A.** 54%

**Q.** And the “CSF2 gene expression, % Δ (percent change)” value (CSF2; 1 mg/mL CBD)?
**A.** 117%

**Q.** And the “CSF2 gene expression, % Δ (percent change)” value (CSF2; 10 mg/mL CBD)?
**A.** 118%

**Q.** What about the “CSF2 gene expression, % Δ (percent change)” value (CSF2; 30 mg/mL CBD) of the same compound?
**A.** −19%

**Q.** And the “CSF2 gene expression, % Δ (percent change)” value (CSF2; 60 mg/mL CBD)?
**A.** 186%

**Q.** What about the “CSF2 gene expression, % Δ (percent change)” value (CSF2; 120 mg/mL CBD) of the same compound?
**A.** 448%

**Q.** And the “CSF2 gene expression, % Δ (percent change)” value (CSF2; 250 mg/mL CBD)?
**A.** 763%

**Q.** What about the “CSF2 gene expression, % Δ (percent change)” value (CSF2; 500 mg/mL CBD) of the same compound?
**A.** −30%

**Q.** What about the “CSF2 gene expression, % Δ (percent change)” value (CSF2; 750 mg/mL CBD) of the same compound?
**A.** 93%

**Q.** What about the cell viability (cells) of the same compound?
**A.** significant increase

**Q.** What about the “MT1F gene expression, % Δ (percent change)” value (MT1F; 1 mg/mL CBD) of the same compound?
**A.** 147%

**Q.** What about the “MT1F gene expression, % Δ (percent change)” value (MT1F; 10 mg/mL CBD) of the same compound?
**A.** 40%

**Q.** What about the “MT1F gene expression, % Δ (percent change)” value (MT1F; 30 mg/mL CBD) of the same compound?
**A.** −65%

**Q.** What about the “MT1F gene expression, % Δ (percent change)” value (MT1F; 60 mg/mL CBD) of the same compound?
**A.** 134%

**Q.** And the “MT1F gene expression, % Δ (percent change)” value (MT1F; 120 mg/mL CBD)?
**A.** 602%

**Q.** And the “MT1F gene expression, % Δ (percent change)” value (MT1F; 250 mg/mL CBD)?
**A.** 2163%

**Q.** And the “MT1F gene expression, % Δ (percent change)” value (MT1F; 500 mg/mL CBD)?
**A.** 3963%

**Q.** What about the “MT1F gene expression, % Δ (percent change)” value (MT1F; 750 mg/mL CBD) of the same compound?
**A.** 2971%

**Q.** What about the “MT1G gene expression, % Δ (percent change)” value (MT1G; 1 mg/mL CBD) of the same compound?
**A.** −41%

**Q.** And the “MT1G gene expression, % Δ (percent change)” value (MT1G; 10 mg/mL CBD)?
**A.** −4%

**Q.** And the “MT1G gene expression, % Δ (percent change)” value (MT1G; 30 mg/mL CBD)?
**A.** 92%

**Q.** What about the “MT1G gene expression, % Δ (percent change)” value (MT1G; 60 mg/mL CBD) of the same compound?
**A.** 2526%

**Q.** And the “MT1G gene expression, % Δ (percent change)” value (MT1G; 120 mg/mL CBD)?
**A.** 5186%

**Q.** What about the “MT1G gene expression, % Δ (percent change)” value (MT1G; 250 mg/mL CBD) of the same compound?
**A.** 13439%

**Q.** What about the “MT1G gene expression, % Δ (percent change)” value (MT1G; 500 mg/mL CBD) of the same compound?
**A.** 33439%

**Q.** What about the “MT1G gene expression, % Δ (percent change)” value (MT1G; 750 mg/mL CBD) of the same compound?
**A.** 23223%

**Q.** With Triton-X as the compound, how does the “Relative Viability” value (cells; positive control, topical 24 hours, untreated = 100%) read?
**A.** 3%
